Data set [1] has as its system M. bovis BCG. The format is cell-based, Mycobacterium bovis BCG.
Data set [2] relates to Vero (African Green Monkey kidney epithelial cells). The data set can be described thus: Cytotoxicity against mammalian Vero cells. The format is cell-based. As to conditions: IC50 Vero/MIC50 Mtb.
In data set [3] the test system is M. bovis BCG. The class given is cell-based, Mycobacterium bovis BCG. The source holds these as a separate data set.
Data set [4] has as its system nutrient-starved M. tuberculosis H37Rv. Kind of data set: Loebel model, nutrient-starved nonreplicating cultures. The following applies: 40× MIC90 (64 μM); 7 days. The class given is cell-based, Mycobacterium tuberculosis H37Rv.
Data set [5] has as its system M. bovis BCG cell membrane. The class given is cell-based, Mycobacterium bovis BCG. The following applies: 4× MIC90 (1.2 μM); for membrane depolarizing effect: after 8 h of exposure; for time at which red/green fluorescence ratio significantly decreased: coincided with onset of cell death.
The next data set deals with piniBAC promoter. The format is cell-based, Mycobacterium bovis BCG. As to conditions: 0.4–25 μM, 24 h.
For data set [6], the system named is reactive oxygen species (ROS) in M. bovis BCG. The format is cell-based, Mycobacterium bovis BCG. The following applies: for dose-dependent ROS production: 0.25×–2× MIC90, 90 min; for ROS levels at higher dose: 2× MIC90.
The next data set concerns pfurA promoter. The class given is cell-based, Mycobacterium bovis BCG. As to conditions: 0.5× to 2× MIC90, 24 h.
Data set [7] deals with M. bovis BCG. The format is cell-based, Mycobacterium bovis BCG. As to conditions: 32 at its MIC90 + vitamin C 2.5 mM, 5 days.
In data set [8] the test system is M. bovis BCG. The class given is cell-based, Mycobacterium bovis BCG. As to conditions: N-acetylcysteine, TEMPO, thiourea.
Data set [9] deals with NDH2 in IMVs of M. smegmatis mc^2155 (Mycolicibacterium smegmatis, UniProt A0QYD6). Kind of data set: NADH oxidation in inverted membrane vesicles. As to conditions: KCN, 20 mM. The format is biochemical.
Chain of NDH2 in IMVs of M. smegmatis mc^2155 (A0QYD6 1-457): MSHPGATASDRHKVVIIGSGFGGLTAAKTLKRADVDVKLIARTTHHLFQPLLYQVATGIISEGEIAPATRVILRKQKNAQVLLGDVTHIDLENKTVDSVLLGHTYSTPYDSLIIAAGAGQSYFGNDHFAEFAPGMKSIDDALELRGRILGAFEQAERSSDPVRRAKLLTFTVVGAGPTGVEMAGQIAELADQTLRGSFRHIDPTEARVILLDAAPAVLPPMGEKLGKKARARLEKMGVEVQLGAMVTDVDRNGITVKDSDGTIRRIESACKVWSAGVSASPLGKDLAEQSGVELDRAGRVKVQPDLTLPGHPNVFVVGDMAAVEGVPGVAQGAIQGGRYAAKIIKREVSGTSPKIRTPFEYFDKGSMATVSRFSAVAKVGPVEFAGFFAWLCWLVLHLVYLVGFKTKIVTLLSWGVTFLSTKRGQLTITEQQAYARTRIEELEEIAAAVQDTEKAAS
In data set [10] the test system is M. smegmatis mc^2155 IMVs. Kind of data set: Oxygen consumption and hydrogen peroxide production by IMVs. The format is biochemical.
In the next data set the test system is M. smegmatis IMVs. Kind of data set: Transmembrane pH gradient dissipation in IMVs. The format is biochemical. As to conditions: 1 and 2 μM.
The nature of data set [11]: Metabolic stability in rat microsomes. The format is in vitro ADME.
A further data set can be described thus: mini-Ames test. The format is cell-based.
Data set [12] in a line: In vivo pharmacokinetics in mice. As to conditions: mouse; for bioavailability: po, 50 mg/kg.
Data set [13] deals with M. bovis BCG cell membrane. As to conditions: for membrane permeabilizing effect: 4× MIC90, after 8 h of exposure; for time at which permeabilization was observed: 4× MIC90, attributed to onset of cell death.
The test system of data set [14] is M. bovis BCG katG mutant strain. The class given is cell-based, Mycobacterium bovis BCG.

In general, half-life refers to the time needed for the level to fall by half in the phase considered. For orientation: Vd means the apparent volume that relates the amount in the body to the concentration in plasma or blood. Usually clearance stands for the volume of plasma or blood freed of the substance per unit of time. The bioavailability is the share of a dose that reaches the circulation, judged against a reference dose that is usually intravenous.

A value given as a limit tells only on which side of the number the result lay.

In turn, `CCCCCCCCn1c2c([n+](CCCC)c1C)C(=O)c1ccccc1C2=O.[Br-]` [compound 32] came in with a pMIC90 in the data set on M. bovis BCG [1] above 0.5. The “SI (selectivity index)” value in [2] was above 25. The time-kill outcome in the data set with M. bovis BCG [3] (8× MIC90, 28 days) was “CFUs were not detected from day 21 onward”. Also, the “bactericidal effect, Loebel model” value in data set [4] is reported as “substantially reduced CFUs to levels equivalent to or below the detection limit”. For the same molecule, in data set [5], the membrane depolarizing effect result is on record as “Neither compound induced depolarizing or permeabilizing effects” and the “time at which red/green fluorescence ratio significantly decreased” value was found to be 48 h. For the same molecule, in the data set on piniBAC promoter, the “piniBAC promoter activity (fluorescence)” value is listed as “no increase in fluorescence”. Moreover, in [6], the “dose-dependent ROS production” value is reported as “duly observed”. Moreover, the “pfurA activation (fluorescence)” value in the data set with pfurA promoter was “induced dose-dependent increases in fluorescence”. For the same molecule, the “Log10 CFU counts with vitamin C added” value in the data set on M. bovis BCG [7] is “nearly halved”. Moreover, in the data set with M. bovis BCG [8], the “effect of antioxidants on growth inhibitory MIC BCG” value is “did not diminish the growth inhibitory potency”. In addition, the “stimulation of NADH oxidation with cyanide” value in data set [9] is “retained the ability to stimulate NADH oxidation”. Further, the “oxygen consumption in IMVs energized by NADH compared to malate” value in data set [10] is on record as ~ 1.8 fold. Also, in the data set with M. smegmatis IMVs, the “protonophore activity (pH gradient dissipation)” value is “only moderate rates of pH gradient dissipation”. Further, the half-life in data set [11] was in the range of 0.333 to 0.383 h. The “mutagenicity, mini-Ames test” value in “mini-Ames test” is “not mutagenic”. Moreover, in data set [12], the Vd was in the range of 27 to 35 L/kg, the clearance fell in the range of 38 to 55 mL/min/kg, the half-life is 7 to 10 h and the bioavailability was in the range of 1 to 2%. Besides, in [13], the membrane permeabilizing effect result is “Neither compound induced depolarizing or permeabilizing effects” and the “time at which permeabilization was observed” value is reported as 24 h.
`CCCCCC[n+]1c2c(n(CC(C)C)c1C)C(=O)c1ccccc1C2=O.[Br-]` [compound 34] gave a pMIC90 with M. bovis BCG [1] above 0.5.
`CCCCCCCC[n+]1c2c(n(CC(C)C)c1C)C(=O)c1ccccc1C2=O.[Br-]` [compound 35] gave a pMIC90 with M. bovis BCG [1] above 0.5.
`CCCCCCCn1c2c([n+](CCCCC)c1C)C(=O)c1ccccc1C2=O.[Br-]` [compound 48]: the pMIC90 with M. bovis BCG [1] is above 0.5. In addition, the “SI (selectivity index)” value in data set [2] is listed as above 25. For the same molecule, the “bactericidal effect, Loebel model” value in data set [4] was “substantially reduced CFUs to levels equivalent to or below the detection limit”. In addition, in data set [5], the membrane depolarizing effect entry is “Neither compound induced depolarizing or permeabilizing effects” and the “time at which red/green fluorescence ratio significantly decreased” value was 24 h. The “piniBAC promoter activity (fluorescence)” value in the data set with piniBAC promoter is “no increase in fluorescence”. Further, in [6], the “dose-dependent ROS production” value is “duly observed”. The “pfurA activation (fluorescence)” value with pfurA promoter is given as “induced dose-dependent increases in fluorescence”. In data set [13], the membrane permeabilizing effect entry is “Neither compound induced depolarizing or permeabilizing effects” and the “time at which permeabilization was observed” value stood at 48 h.
In the data set on M. bovis BCG [1], `CCCCCCn1c2c([n+](CCCCCC)c1C)C(=O)c1ccccc1C2=O.[Br-]` [compound 50] came in with a pMIC90 above 0.5.
In the case of `CCCCn1c2c([n+](C3CCC4(CCCCC4)CC3)c1C)C(=O)c1ccccc1C2=O.[Br-]` [compound 61], the “piniBAC promoter activity (fluorescence)” value in the data set on piniBAC promoter is reported as “no increase in fluorescence”. Moreover, the “dose-dependent ROS production” value in data set [6] is given as “duly observed”. For the same molecule, in the data set with pfurA promoter, the “pfurA activation (fluorescence)” value is “induced dose-dependent increases in fluorescence”. Also, the “activity against katG mutant strain” value in data set [14] is listed as “a shift to lower MICs was not evident”. For the same molecule, in data set [11], the half-life lay in the range of 0.333 to 0.383 h. For the same molecule, the “mutagenicity, mini-Ames test” value in the data set “mini-Ames test” is “not mutagenic”. Moreover, in data set [12], the volume of distribution (Vd) was 27 to 35 L/kg, the clearance fell in the range of 38 to 55 mL/min/kg, the half-life fell in the range of 7 to 10 h and the bioavailability was 1 to 2%.
In the case of `CCCCCCn1c(C)nc2c1C(=O)c1ccccc1C2=O` [compound 72], the “ROS levels at higher dose” value in [6] is given as “increased ROS levels but not to the levels induced by the actives at comparable doses”. In addition, the “pfurA activation (fluorescence)” value in the data set with pfurA promoter is “less evident”.
Taken in the same sequence, the figures for `CCCCCCCCn1c(C)nc2c1C(=O)c1ccccc1C2=O` [compound 73] were “increased ROS levels but not to the levels induced by the actives at comparable doses” and “less evident”.
Consider `NNC(=O)c1ccncc1` [isoniazid, reference compound], for which the “time-kill outcome, colony growth by Day 28” value in the data set with M. bovis BCG [3] (4× MIC90 (12.8 μM)) is recorded as “comparable to the drug-free cultures”. Further, the “piniBAC promoter activity (fluorescence)” value in the data set with piniBAC promoter is given as “duly increased piniBAC promoter activity”. In addition, in [14], the “activity against katG mutant strain” value is “inactive against the mutant strain”.

For the origin of these results see PMC8595825 (Journal of medicinal chemistry, 2021).
